Measured values: paper PMC6760779, “Unraveling the functional role of the orphan solute carrier, SLC22A24 in the transport of steroid conjugates through metabolomic and genome-wide association studies” (PLoS Genetics, 2019)
Structures can show the parent of a compound that is named as a salt. Where two headings read alike, the source gives them in different places. One block for each molecule: values may come before it.

Assays:
[1] = molecular target: T1, SLC22A24 (Homo sapiens, UniProt Q8N4F4); assay: cell-based
T1 sequence (Q8N4F4 1-552): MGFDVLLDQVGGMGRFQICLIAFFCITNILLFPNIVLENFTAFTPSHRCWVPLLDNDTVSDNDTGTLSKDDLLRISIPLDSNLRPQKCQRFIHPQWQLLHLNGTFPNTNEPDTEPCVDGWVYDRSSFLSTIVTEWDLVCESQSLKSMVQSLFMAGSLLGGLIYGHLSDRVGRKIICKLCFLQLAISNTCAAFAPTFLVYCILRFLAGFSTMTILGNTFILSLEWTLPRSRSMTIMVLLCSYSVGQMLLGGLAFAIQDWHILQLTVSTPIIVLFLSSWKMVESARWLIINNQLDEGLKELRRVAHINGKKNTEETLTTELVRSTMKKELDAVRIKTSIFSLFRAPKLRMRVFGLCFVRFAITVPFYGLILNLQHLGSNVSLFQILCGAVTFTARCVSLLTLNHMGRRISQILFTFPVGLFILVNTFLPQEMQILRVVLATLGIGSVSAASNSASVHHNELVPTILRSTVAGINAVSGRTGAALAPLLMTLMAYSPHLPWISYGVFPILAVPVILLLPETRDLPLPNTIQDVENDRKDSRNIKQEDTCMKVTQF

[2] = substrate: C[C@]12CC[C@@H]3c4ccc(O)cc4CC[C@H]3[C@@H]1CC[C@@H]2O[C@@H]1O[C@H](C(=O)O)[C@@H](O)[C@H](O)[C@H]1O; assay: cells, lysate or membranes; type: cell-based, Homo sapiens
[3] = substrate: C[C@H](CCC(=O)NCC(=O)O)[C@H]1CC[C@H]2[C@@H]3[C@H](O)C[C@@H]4C[C@H](O)CC[C@]4(C)[C@H]3C[C@H](O)[C@]12C; assay: cells, lysate or membranes; type: cell-based, Homo sapiens
[4] = substrate: C[C@]12CC[C@@H]3c4ccc(OS(=O)(=O)O)cc4CC[C@H]3[C@@H]1CCC2=O; assay: cells, lysate or membranes

Molecule: CC(=O)[C@H]1CC[C@H]2[C@@H]3CC=C4C[C@@H](OS(=O)(=O)O)CC[C@]4(C)[C@H]3CC[C@]12C [Pregnenolone sulfate]
IC50 [1]: 1.4 ± 0.1 µM

Molecule: CC(=O)[C@H]1CC[C@H]2[C@@H]3CCC4=CC(=O)CC[C@]4(C)[C@H]3CC[C@]12C [Progesterone]
IC50 [1]: 7.4 ± 3 µM

Molecule: CN(CCOc1ccc(CC2SC(=O)NC2=O)cc1)c1ccccn1 (stereo not drawn) [Rosiglitazone]
IC50 ([1]; read-out: IC50 [μM ± SD]): 3.3 ± 1.4 µM

Molecule: C[C@H](CCC(=O)O)[C@H]1CC[C@H]2[C@@H]3[C@@H](O)C[C@@H]4C[C@H](O)CC[C@]4(C)[C@H]3CC[C@]12C [Ursodeoxycholic acid]
IC50 ([1]; read-out: IC50 [μM ± SD]): 7.6 ± 1.2 µM

B1: SLC22A24 (Homo sapiens) (protein)
chain: MGFDVLLDQVGGMGRFQICLIAFFCITNILLFPNIVLENFTAFTPSHRCWVPLLDNDTVSDNDTGTLSKDDLLRISIPLDSNLRPQKCQRFIHPQWQLLHLNGTFPNTNEPDTEPCVDGWVYDRSSFLSTIVTEWDLVCESQSLKSMVQSLFMAGSLLGGLIYGHLSDRVGRKIICKLCFLQLAISNTCAAFAPTFLVYCILRFLAGFSTMTILGNTFILSLEWTLPRSRSMTIMVLLCSYSVGQMLLGGLAFAIQDWHILQLTVSTPIIVLFLSSWKMVESARWLIINNQLDEGLKELRRVAHINGKKNTEETLTTELVRSTMKKELDAVRIKTSIFSLFRAPKLRMRVFGLCFVRFAITVPFYGLILNLQHLGSNVSLFQILCGAVTFTARCVSLLTLNHMGRRISQILFTFPVGLFILVNTFLPQEMQILRVVLATLGIGSVSAASNSASVHHNELVPTILRSTVAGINAVSGRTGAALAPLLMTLMAYSPHLPWISYGVFPILAVPVILLLPETRDLPLPNTIQDVENDRKDSRNIKQEDTCMKVTQF
Km [2]: 17.5 ± 0.2 µM | Km [3]: 33.4 ± 2.5 µM | Km [4]: 8.6 ± 0.3 µM

The next lines start with the values.

IC50 ([1]; read-out: IC50 [μM ± SD]): 2.6 ± 1 µM
Molecule: C[C@H](CCC(=O)O)[C@H]1CC[C@H]2[C@@H]3[C@H](O)C[C@@H]4C[C@H](O)CC[C@]4(C)[C@H]3CC[C@]12C [Chenodeoxycholic acid]

IC50 ([1]; read-out: IC50 [μM ± SD]): 13 ± 6.1 µM
Molecule: O=C(O)CSc1nnc(Br)n1-c1ccc(C2CC2)c2ccccc12 [Lesinurad]
